Source: ChEMBL document CHEMBL1201862, “PubChem BioAssay data set” (2004)
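Each compound was tested at five concentrations against cells in 96-well plates for 48 hours. GI50: concentration for 50% inhibition of growth.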 Calls of active or inactive are those of the source. Rule as the data show it: active = GI50 up to about 1.1 µM and inactive = higher.

Tests used:
Assay in all cases: DTP human tumour cell line panel, 48 h
A498 = test system: A498
A549 = test system: A549
BT-549 = test system: BT-549
CCRF-CEM = test system: CCRF-CEM
DU-145 = test system: DU-145
HL-60 = test system: HL-60
HOP-62 = test system: HOP-62
IGROV-1 = test system: IGROV-1
K562 = test system: K562
NCI-H226 = test system: NCI-H226
NCI-H23 = test system: NCI-H23
NCI-H522 = test system: NCI-H522
PC-3 = test system: PC-3
RPMI-8226 = test system: RPMI-8226
SF-268 = test system: SF-268
SF-295 = test system: SF-295
SK-MEL-28 = test system: SK-MEL-28
SW-620 = test system: SW-620
T47D = test system: T47D
TK-10 = test system: TK-10

Row | Compound | GI50 (A498) | GI50 (A549) | GI50 (BT-549) | GI50 (CCRF-CEM) | GI50 (DU-145) | GI50 (HL-60) | GI50 (HOP-62) | GI50 (IGROV-1) | GI50 (K562) | GI50 (NCI-H226) | GI50 (NCI-H23) | GI50 (NCI-H522) | GI50 (PC-3) | GI50 (RPMI-8226) | GI50 (SF-268) | GI50 (SF-295) | GI50 (SK-MEL-28) | GI50 (SW-620) | GI50 (T47D) | GI50 (TK-10)
1 | O=S(=O)(Nc1nccs1)c1ccc([As](=O)(O)O)cc1 | > 100 µM (inactive) | > 100 µM (inactive) | > 100 µM (inactive) | > 100 µM (inactive) | > 100 µM (inactive) | > 100 µM (inactive) | > 100 µM (inactive) | > 100 µM (inactive) | > 100 µM (inactive) | > 100 µM (inactive) | > 100 µM (inactive) | > 100 µM (inactive) | > 100 µM (inactive) | > 100 µM (inactive) | > 100 µM (inactive) | > 100 µM (inactive) | > 100 µM (inactive) | > 100 µM (inactive) | > 100 µM (inactive) | > 100 µM (inactive)
2 | COc1ccccc1/C=C1\CCC(CN(C)C)C1=O (stereo not given) | 19.3 µM (inactive) | 20.1 µM (inactive) | 13.3 µM (inactive) | 1.5 µM (inactive) | 11.8 µM (inactive) | 1.49 µM (inactive) | 19.5 µM (inactive) | 13.3 µM (inactive) | 2.28 µM (inactive) | 11.4 µM (inactive) | 10.8 µM (inactive) | 1.85 µM (inactive) | 8.05 µM (inactive) | 2.05 µM (inactive) | 10.6 µM (inactive) | 15.2 µM (inactive) | 4.36 µM (inactive) | 2.58 µM (inactive) | 3.58 µM (inactive) | 5.73 µM (inactive)
3 | O=[N+]([O-])c1cc(C2(N3CCCCC3)CCCCC2)sc1Br | 5.92 µM (inactive) | 17.1 µM (inactive) | 6.82 µM (inactive) | 2.08 µM (inactive) | 3.18 µM (inactive) | 2.34 µM (inactive) | 6 µM (inactive) | 11.4 µM (inactive) | 2.92 µM (inactive) | 3.33 µM (inactive) | 11.9 µM (inactive) | 2.14 µM (inactive) | 4.06 µM (inactive) | 1.74 µM (inactive) | 7.5 µM (inactive) | 15.3 µM (inactive) | 5.41 µM (inactive) | 4.09 µM (inactive) | 1.87 µM (inactive) | 2.39 µM (inactive)
4 | S=C(N/N=C/c1ccccn1)Nc1ccc(Cl)cc1 | 4.1 µM (inactive) | 0.307 µM (active) | 0.233 µM (active) | < 0.01 µM (active) | 0.126 µM (active) | 0.0317 µM (active) | 0.181 µM (active) | 0.0933 µM (active) | < 0.01 µM (active) | 0.0845 µM (active) | 0.104 µM (active) | 0.028 µM (active) | 0.0424 µM (active) | 0.134 µM (active) | 0.05 µM (active) | 0.181 µM (active) | 0.413 µM (active) | 0.0528 µM (active) | 0.0169 µM (active) | 2.93 µM (inactive)
5 | CC1CNC(c2ccc(-c3nc(-c4ccc(C5=NC(C)CN5)cc4)nc(N(C)C)n3)cc2)=N1 (stereo not given) | 2.05 µM (inactive) | 3.02 µM (inactive) | 3.74 µM (inactive) | 0.685 µM (active) | 1.78 µM (inactive) | 2.62 µM (inactive) | 1.47 µM (inactive) | 4.06 µM (inactive) | 1.41 µM (inactive) | 2.02 µM (inactive) | 2.39 µM (inactive) | 1.24 µM (inactive) | 1.57 µM (inactive) | 3.78 µM (inactive) | 2 µM (inactive) | 4.22 µM (inactive) | 2.69 µM (inactive) | 1.17 µM (inactive) | 2.71 µM (inactive) | 3.78 µM (inactive)
6 | CC(=O)OC1COC(Nc2nc(NCc3ccccc3)n(C)c(=O)c2N=O)C(OC(C)=O)C1OC(C)=O (stereo not given) | > 10 µM (inactive) | > 10 µM (inactive) | > 10 µM (inactive) | > 10 µM (inactive) | > 10 µM (inactive) | > 10 µM (inactive) | > 10 µM (inactive) | > 10 µM (inactive) | > 10 µM (inactive) | > 10 µM (inactive) | > 10 µM (inactive) | > 10 µM (inactive) | > 10 µM (inactive) | > 10 µM (inactive) | > 10 µM (inactive) | > 10 µM (inactive) | > 10 µM (inactive) | > 10 µM (inactive) | > 10 µM (inactive) | > 10 µM (inactive)
7 | COCCOC1=C(Cl)C(=O)c2c(O)ccc(O)c2C1=O | 10.4 µM (inactive) | 8.34 µM (inactive) | 2.52 µM (inactive) | 0.111 µM (active) | 5.26 µM (inactive) | 0.111 µM (active) | 3.33 µM (inactive) | 3.08 µM (inactive) | 0.635 µM (active) | 12.1 µM (inactive) | 2.25 µM (inactive) | 0.681 µM (active) | 4.62 µM (inactive) | 0.741 µM (active) | 4.71 µM (inactive) | 14.8 µM (inactive) | 2.27 µM (inactive) | 0.444 µM (active) | 2.47 µM (inactive) | 1.47 µM (inactive)
8 | CN(C)CCNC(=O)c1c(O)ccc2c1c1c(n2CCc2ccccc2)C(=O)c2ccccc2C1=O | 14.8 µM (inactive) | 8.53 µM (inactive) | 16.1 µM (inactive) | 0.826 µM (active) | 4.57 µM (inactive) | 9.18 µM (inactive) | 10.6 µM (inactive) | 8.47 µM (inactive) | 2.39 µM (inactive) | 16.8 µM (inactive) | 14.4 µM (inactive) | 8.67 µM (inactive) | 12 µM (inactive) | 2.75 µM (inactive) | 4.15 µM (inactive) | 4.06 µM (inactive) | 1.98 µM (inactive) | 6.93 µM (inactive) | 3.66 µM (inactive) | 7.93 µM (inactive)
9 | CN1CCN2CCN(C)CCN(CC1)CC2 | > 100 µM (inactive) | > 100 µM (inactive) | > 100 µM (inactive) | > 100 µM (inactive) | > 100 µM (inactive) | > 100 µM (inactive) | > 100 µM (inactive) | > 100 µM (inactive) | > 100 µM (inactive) | > 100 µM (inactive) | > 100 µM (inactive) | > 100 µM (inactive) | > 100 µM (inactive) | > 100 µM (inactive) | > 100 µM (inactive) | > 100 µM (inactive) | > 100 µM (inactive) | > 100 µM (inactive) | > 100 µM (inactive) | > 100 µM (inactive)
10 | N#Cc1c2ccc([N+](=O)[O-])cc2c(=O)n2c1[nH]c1ccc(C(F)(F)F)cc12 | 7.91 µM (inactive) | > 55.8 µM (inactive) | 25.2 µM (inactive) | 1.35 µM (inactive) | 44.4 µM (inactive) | 0.254 µM (active) | 26.9 µM (inactive) | 34.2 µM (inactive) | 12.5 µM (inactive) | 14.3 µM (inactive) | 20.1 µM (inactive) | 7.28 µM (inactive) | > 38.2 µM (inactive) | 4.48 µM (inactive) | 39.6 µM (inactive) | 14.4 µM (inactive) | 24.2 µM (inactive) | 14.4 µM (inactive) | 32.4 µM (inactive) | 99.5 µM (inactive)
